Reference: US20020025918A1, “Methods of using helical peptides in plants” (priority 1987, published 2002)
Values after ≈ are worked out from the molar mass of the structure shown. Residues, ends and D or L forms follow the SMILES beside them.

Columns and labels:
E. coli [1] = assay: MBC and MIC susceptibility test; assay type: cell-based; conditions: for MBC: Table III
P. aeruginosa = assay: MBC and MIC susceptibility test; assay type: cell-based; conditions: for MBC: Table III, P. aeuriginosa (−)
S. aureus = assay: MBC and MIC susceptibility test; assay type: cell-based
EL-4 lymphoma cells = assay: EL-4 cell killing, trypan blue exclusion; conditions: one hour, 37° C.
E. coli [2] = assay: Synergy of lytic peptide with antibiotics; conditions: Manitou-1 0 μM
S. auerus = assay: Synergy of lytic peptide with antibiotics; conditions: Manitou-1 0 μM

## CC(C)C[C@H](NC(=O)[C@H](CCCCN)NC(=O)[C@H](C)NC(=O)[C@H](CC(C)C)NC(=O)[C@H](CCCCN)NC(=O)[C@H](CCCCN)NC(=O)[C@H](C)NC(=O)[C@H](CC(C)C)NC(=O)[C@H](CCCCN)NC(=O)[C@H](C)NC(=O)[C@H](CC(C)C)NC(=O)[C@H](CCCCN)NC(=O)[C@H](CCCCN)NC(=O)[C@@H](N)CC(C)C)C(=O)N[C@@H](C)C(=O)N[C@@H](CCCCN)C(=O)N[C@@H](CCCCN)C(=O)N[C@@H](CC(C)C)C(=O)N[C@@H](C)C(=O)N[C@@H](CCCCN)C(=O)N[C@@H](CCCCN)C(N)=O [Anubis-8]
E. coli [1]
  antibacterial result of treatment (Table I; MBC): 16 µM
P. aeruginosa; P. aeruginosa (−)
  antibacterial result of treatment (Table I; MBC): 16 µM
S. aureus; S. auerus (+)
  antibacterial result of treatment (Table I; MBC): 8 µM

## CC(C)C[C@H](NC(=O)[C@H](C)NC(=O)[C@H](CCCCN)NC(=O)[C@H](CCCCN)NC(=O)[C@H](CC(C)C)NC(=O)[C@H](C)NC(=O)[C@H](CCCCN)NC(=O)[C@H](CCCCN)NC(=O)[C@H](CC(C)C)NC(=O)[C@H](CCCCN)NC(=O)[C@H](CCCCN)NC(=O)[C@H](CC(C)C)NC(=O)[C@H](C)NC(=O)[C@H](CCCCN)NC(=O)[C@H](CCCCN)NC(=O)[C@H](CC(C)C)NC(=O)[C@H](C)NC(=O)[C@H](CCCCN)NC(=O)[C@H](CC(C)C)NC(=O)[C@H](C)NC(=O)[C@H](CC(C)C)NC(=O)[C@H](C)NC(=O)[C@@H](N)Cc1ccccc1)C(N)=O [Hecate-1] (H-FALALKALKKALKKLKKALKKAL-NH2)
E. coli [1]
  MBC: 4.0 µM (≈ 10.1 µg/mL)
P. aeruginosa
  MBC: 10.0 µM (≈ 25.4 µg/mL)

## CC[C@H](C)[C@H](NC(=O)CNC(=O)[C@H](CC(N)=O)NC(=O)[C@H](CCCNC(=N)N)NC(=O)[C@@H](NC(=O)[C@H](CC(N)=O)NC(=O)[C@H](CCCNC(=N)N)NC(=O)CNC(=O)[C@@H](NC(=O)[C@H](CCCCN)NC(=O)[C@H](CCC(=O)O)NC(=O)[C@@H](NC(=O)[C@H](CCCCN)NC(=O)[C@H](CCCCN)NC(=O)[C@H](Cc1ccccc1)NC(=O)[C@@H](NC(=O)[C@H](CCCCN)NC(=O)[C@H](Cc1c[nH]c2ccccc12)NC(=O)[C@H](CCCCN)NC(=O)[C@@H]1CCCN1C(=O)[C@@H](N)CCSC)C(C)C)[C@@H](C)CC)C(C)C)[C@@H](C)CC)C(=O)N[C@H](C(=O)N[C@@H](CCCCN)C(=O)N[C@@H](C)C(=O)NCC(=O)N1CCC[C@H]1C(=O)N[C@@H](C)C(=O)N[C@H](C(=O)N[C@@H](C)C(=O)N[C@H](C(=O)N[C@@H](CC(C)C)C(=O)NCC(=O)N[C@@H](CCC(=O)O)C(=O)N[C@@H](C)C(=O)N[C@@H](CCCCN)C(=O)N[C@@H](C)C(=O)N[C@@H](CC(C)C)C(=O)NCC(N)=O)C(C)C)[C@@H](C)CC)C(C)C [SB-37] (H-MPKWKVFKKIEKVGRNIRNGIVKAGPAIAVLGEAKALG-NH2)
E. coli [1]
  MBC: 2.0 µM (≈ 8.18 µg/mL)
P. aeruginosa
  MBC: 3.5 µM (≈ 14.3 µg/mL)
S. aureus; Table III, S. aureus (+)
  MBC: 64 µM (≈ 262 µg/mL)

## CC[C@H](C)[C@H](NC(=O)CNC(=O)[C@H](CCC(N)=O)NC(=O)[C@H](CCCCN)NC(=O)[C@@H](NC(=O)[C@H](CCC(N)=O)NC(=O)[C@H](CCCCN)NC(=O)CNC(=O)[C@@H](NC(=O)[C@H](CCCNC(=N)N)NC(=O)[C@H](CC(=O)O)NC(=O)[C@@H](NC(=O)[C@H](CCCNC(=N)N)NC(=O)[C@H](CCCNC(=N)N)NC(=O)[C@H](Cc1ccccc1)NC(=O)[C@H](CC(C)C)NC(=O)[C@H](CCCNC(=N)N)NC(=O)[C@H](Cc1c[nH]c2ccccc12)NC(=O)[C@H](CCCNC(=N)N)NC(=O)[C@@H]1CCCN1C(=O)[C@@H](N)CCSC)[C@@H](C)CC)C(C)C)[C@@H](C)CC)C(=O)N[C@@H](CC(C)C)C(=O)N[C@@H](CCCNC(=N)N)C(=O)N[C@@H](C)C(=O)NCC(=O)N1CCC[C@H]1C(=O)N[C@@H](C)C(=O)N[C@H](C(=O)N[C@@H](C)C(=O)N[C@@H](CC(C)C)C(=O)N[C@H](C(=O)NCC(=O)N[C@@H](CC(=O)O)C(=O)N[C@@H](C)C(=O)N[C@@H](CCCNC(=N)N)C(=O)N[C@@H](C)C(=O)N[C@H](C(=O)NCC(N)=O)C(C)C)C(C)C)[C@@H](C)CC [Shiva-1] (H-MPRWRLFRRIDRVGKQIKQGILRAGPAIALVGDARAVG-NH2; N-terminus and C-terminus assumed)
EL-4 lymphoma cells; 10 μM peptide
  % EL-4 Cells Killed: 2%
EL-4 lymphoma cells; 25 μM peptide
  % EL-4 Cells Killed: 18%
EL-4 lymphoma cells; 50 μM peptide
  % EL-4 Cells Killed: 42%
EL-4 lymphoma cells; 100 μM peptide
  % EL-4 Cells Killed: 87%

## CC(C)C[C@H](NC(=O)[C@H](C)NC(=O)[C@H](CC(C)C)NC(=O)[C@H](C)NC(=O)[C@H](CC(C)C)NC(=O)[C@H](CCCCN)NC(=O)[C@H](C)NC(=O)[C@H](CC(C)C)NC(=O)[C@H](CCCCN)NC(=O)[C@H](CCCCN)NC(=O)[C@H](C)NC(=O)[C@H](CC(C)C)NC(=O)[C@H](CCCCN)NC(=O)[C@H](CCCCN)NC(=O)[C@H](CC(C)C)NC(=O)[C@H](CCCCN)NC(=O)[C@H](CCCCN)NC(=O)[C@H](C)NC(=O)[C@H](CC(C)C)NC(=O)[C@H](CCCCN)NC(=O)[C@H](CCCCN)NC(=O)[C@H](C)NC(=O)[C@@H](N)Cc1ccccc1)C(N)=O [Shiva-10]
E. coli [1]
  MBC: 1.0 µM (≈ 2.54 µg/mL)
P. aeruginosa
  MBC: 2.0 µM (≈ 5.07 µg/mL)

## [H]/N=C(/N)N[C@H]1[C@H](O)[C@@H](O)[C@H](O[C@@H]2O[C@@H](C)[C@](O)(C=O)[C@H]2O[C@@H]2O[C@@H](CO)[C@H](O)[C@@H](O)[C@@H]2NC)[C@@H](N/C(N)=N\[H])[C@@H]1O [Streptomycin, reference compound]
E. coli [2]; antibiotic 0.5 μM alone
  % Cell Death In E. coli: 0%
E. coli [2]; antibiotic 5.0 μM alone
  % Cell Death In E. coli: 87%
S. auerus; antibiotic 0.5 μM alone
  % Cell Death In S. auerus: 0%
S. auerus; antibiotic 5.0 μM alone
  % Cell Death In S. auerus: 87%

## CN(C)[C@@H]1C(O)=C(C(N)=O)C(=O)[C@@]2(O)C(O)=C3C(=O)c4c(O)cccc4[C@@](C)(O)[C@H]3C[C@@H]12 [Tetracycline, reference compound]
E. coli [2]; antibiotic 0.5 μM alone
  % Cell Death In E. coli: 0%
E. coli [2]; antibiotic 5.0 μM alone
  % Cell Death In E. coli: 58%
S. auerus; antibiotic 0.5 μM alone
  % Cell Death In S. auerus: 0%
S. auerus; antibiotic 5.0 μM alone
  % Cell Death In S. auerus: 35%
